In patent publication US20130150317A1, “COMPOUNDS FOR THE TREATMENT OF RENAL CELL CARCINOMA” (Myrovlytis Technology Ventures Limited, priority 2010, published 2013):
“Also recorded” adds a separate entry of the source. Where two headings read alike, the source gives them in different places.

Tests used:
UOK257-FLCN^+ cells = experiment: SRB growth inhibition assay in UOK257-FLCN^+ cells; type: cell-based, human; conditions: Homo sapiens, 72 h, 72 hours continuous exposure, mean ± SE (n), read-out: GI50 nM in UOK-FLCN^+
From the text: (§1) Human renal carcinoma of BHD origin cells UOK-257 (UOK-FLCN^−) and FLCN transfected UOK-257 cells UOK-FLCN^+ (Yang et al Cancer Genet Cytogenet. 2008 Jan. 15; 180(2):100-9) were provided by Dr Marston Linehan and Dr. Laura S Schmidt (Urologic Oncology Branch, Centre for Cancer Research, National Cancer Institute, National Institutes of Health, Bethesda, Md. 20892, USA). UOK-257 is the only RCC cell line that has been derived from a patient with BHD and harbours a germline FLCN frameshift mutation (c.1285dupC) (predicted, in the absence of nonsense mediated mRNA decay, to lead to premature protein truncation (p.His429ProfsX27) (Yang et al., Cancer Genet Cytogenet, 2008 Jan. 15; 180(2):100-9). We are not aware of any sporadic RCC cell lines with homozygous FLCN inactivation. FTC-133 cells were purchased from ECACC (Salisbury, United Kingdom). These cells are a non-RCC cell line derived from human thyroid carcinoma. 786-0 cells were available from the author's lab (Clifford et al., Hum Mol Genet. 2001 May 1; 10(10):1029-38). 786-O is a kidney cancer cell line that harbours an inactivating VHL gene mutation (c.311delG p.G104fs*55). All cell lines were cultured in DMEM with supplement of 10% foetal bovine serum except for FTC-133 cells which were incubated in medium with DMEM and Hens (1:1).
The sensitivity of the cell lines to drug-induced cell growth inhibition was determined using the sulphorhodamine B assay (SRB) as described by Lu et al., Clin Cancer Res. 2001:7:2114-23. Briefly, adherent exponentially growing cells were seeded into 96-well plates at 3-5×10^3 cells/100 μl/well. After 20-24 h at 37° C., drugs were added at the appropriate drug concentrations to the wells (final DMSO conc. 1%) as indicated in the Results section. […] The absorbance per well was measured at 570 nm on a Victor X3 Multilabel Plate Reader (PerkinElmor, Beaconsfield, United Kingdom).
UOK-257 is the only RCC cell line that has been derived from a patient with BHD and harbours a germline FLCN frameshift mutation (c.1285dupC) (predicted, in the absence of nonsense mediated mRNA decay, to lead to premature protein truncation (p.His429ProfsX27) (Yang et al Cancer Genet Cytogenet, 2008 Jan. 15; 180(2):100-9). Both UOK257-FLCN^− and UOK257-FLCN^+ cells were examined for their sensitivities to growth inhibition induced by 15 compounds selected from the COMPARE analysis. Various concentrations of compounds were introduced into the cells 24 hrs after seeding, incubation was continued for 72 hours and growth inhibition was assessed using the suiphorhodamine B (SRB) assay. GI50 values, defined as the concentration of compounds required to inhibit growth by 50%, were then calculated. The ratio of GI50 value from UOK257-FLCN^+ and UOK257-FLCN^− were calculated and used as an indicator for the sensitivity to FLCN mutant cells.

[1] = test system: VHL-deficient cells in ccRCC cell lines; conditions: Sutphin et al., Cancer Res 2007, cited from earlier work
UOK257-FLCN^− cells = experiment: SRB growth inhibition assay in UOK257-FLCN^− cells; type: cell-based, human
From the text: as §1
The sensitivity of the cell lines to drug-induced cell growth inhibition was determined using the sulphorhodamine B assay (SRB) as described by Lu et al., Clin Cancer Res. 2001:7:2114-23. Briefly, adherent exponentially growing cells were seeded into 96-well plates at 3-5×10^3 cells/100 μl/well. […] The absorbance per well was measured at 570 nm on a Victor X3 Multilabel Plate Reader (PerkinElmor, Beaconsfield, United Kingdom).
GI50 values, defined as the concentration of compounds required to inhibit growth by 50%, were then calculated. The ratio of GI50 value from UOK257-FLCN^+ and UOK257-FLCN^− were calculated and used as an indicator for the sensitivity to FLCN mutant cells.

[2] = test system: UOK cells with/without FLCN expression; experiment: Effect of low-concentration rapamycin on cell proliferation (preliminary data); conditions: 1 nmol/L rapamycin; data not shown

Structure (SMILES)	GI50 (UOK257-FLCN^+ cells) [nM]	differential toxicity to VHL-deficient relative to VHL-positive RCC cell lines (in words) ([1]; listed as ChA3)	differential toxicity to VHL-deficient relative to VHL-positive RCC cell lines (in words) ([1]; listed as Chromomycin A3 (ChA3))	GI50 (UOK257-FLCN^− cells; Homo sapiens, SRB assay, 72 hours continuous exposure, mean ± SE (n), read-out: GI50 nM in UOK-FLCN^−) [nM]	differential growth inhibitory activity in FLCN-deficient and FLCN-positive UOK-257 cell lines (in words) (UOK257-FLCN^− cells; listed as ChA3)	GI50 Ratio of UOK-FLCN^+/UOK-FLCN^− (UOK257-FLCN^− cells; ratio>1 = more inhibitory to FLCN^− cells)	reduction on cell proliferation [2]
CO[C@@H]1[C@H](O)C[C@@H](O[C@@H]2C[C@H](Oc3cc4cc5c(c(O)c4c(O)c3C)C(=O)[C@@H](O[C@H]3C[C@@H](O[C@H]4C[C@@H](O[C@H]6C[C@](C)(O)[C@@H](OC(C)=O)[C@H](C)O6)[C@H](O)[C@@H](C)O4)[C@H](O)[C@@H](C)O3)[C@H]([C@H](OC)C(=O)[C@@H](O)[C@@H](C)O)C5)O[C@H](C)[C@@H]2OC(C)=O)O[C@@H]1C [chromomycin A3]	33 ± 5.7	discriminate killing of VHL-deficient cells	differential toxicity	37.4 ± 6.9	did not find any differences; also recorded: does not demonstrate selective toxicity; also recorded: does not show differential growth inhibitory activity	0.88	–
CO[C@H]1C[C@@H]2CC[C@@H](C)[C@@](O)(O2)C(=O)C(=O)N2CCCC[C@H]2C(=O)O[C@H]([C@H](C)C[C@@H]2CC[C@@H](O)[C@H](OC)C2)CC(=O)[C@H](C)/C=C(\C)[C@@H](O)[C@@H](OC)C(=O)[C@H](C)C[C@H](C)/C=C/C=C/C=C/1C [rapamycin]	–	–	–	–	–	–	10%-15
